From patent US20230372434A1, “METHOD OF TREATING FIBROSIS WITH A COMBINATION THERAPY” (COHBAR, INC., priority 2020, published 2023)
Square brackets hold non-standard residues; d marks the D form. Primed or numbered codes have the meaning given here. Ends that are not written are not given here. PEG12′ = not defined here; Nle = CCCC[C@H](N)C(=O)O

Legend:
[1] = tested on: established lung fibrosis induced by bleomycin in male C57BL/6 mice; assay: Therapeutic mouse model of idiopathic pulmonary fibrosis, peptides alone (Example 2); format: in vivo
Protocol: The effect of the peptides on the progression of established lung fibrosis were assessed by monitoring lung fibrosis, lung weight, inflammatory cells in bronchoalveolar lavage fluid (BALF), soluble collagen in BALF, cytokine secretion in BALF, and body weight change in a therapeutic mouse model of idiopathic pulmonary fibrosis. Lung fibrosis was induced in lungs of male C57BL/6 mice between the ages of 6 to 8 weeks by nasophayngeal administration of bleomycin (1.5 U/kg using bleomycin clinical formulation diluted in PBS). A control group of animals were administered saline by the nasopharyngeal route (no-bleomycin control group). After one week, bleomycin-treated animals were randomized to treatment groups (N=10 per group) by body weight and treated daily with vehicle control, nintedanib positive control (60 mg/kg/day PO) or peptide (5 or 15 mg/kg/day by intraperitoneal injection). After 14 days of treatment (Day 21), lungs were removed and weighed. The post-caval lobe was separated and snap frozen. The lungs were flushed with Hanks Buffer and bronchoalveolar lavage fluid (BALF) was harvested from each animal Total BALF leukocyte were counted. Slides were prepared from the remaining BALF leukocytes, fixed and stained with May Geimsa stain and the differential counts were recorded manually. BALF was evaluated for soluble collagen using a Sircol assay. Lungs were fixed in 10% neutral buffered formalin (NBF) for histopathological analysis. Fibrosis was assessed by histopathological analysis of H&E stained mouse lungs using an Ashcroft scoring system. Collagen deposition in lung tissue was assessed by histopathological analysis of Masson's Trichrome stained mouse lungs using a standard scoring system for severity.

[2] = tested on: established lung fibrosis induced by bleomycin in male C57BL/6 mice; assay: Therapeutic mouse model of idiopathic pulmonary fibrosis, peptide combined with nintedanib (Example 1); format: in vivo; details: peptide 5 mg/kg/day IP; for Mean Pro-inflammatory Cytokine Level IFNγ / Mean Pro-inflammatory Cytokine Level IL-1β / Mean Pro-inflammatory Cytokine Level IL-6 / Mean Pro-inflammatory Cytokine Level KC/GRO / Mean Pro-inflammatory Cytokine Level MCP-1 / Mean Pro-inflammatory Cytokine Level MIP-1α / Mean Pro-inflammatory Cytokine Level TNFα: BALF, MSD; for Mean Pro-inflammatory Cytokine Level IFNγ / Mean Pro-inflammatory Cytokine Level IL-1β / Mean Pro-inflammatory Cytokine Level IL-6 / Mean Pro-inflammatory Cytokine Level KC/GRO / Mean Pro-inflammatory Cytokine Level MCP-1 / Mean Pro-inflammatory Cytokine Level MIP-1α / Mean Pro-inflammatory Cytokine Level TNFα / Mean (SEM) Number of Lymphocytes in BALF / Mean (SEM) Number of Macrophages in BALF / Mean (SEM) Number of Neutrophils in BALF: Day 21, nintedanib 60 mg/kg/day PO; for Mean (SEM) Normalized Lung Weight / Mean (SEM) Ashcroft Score / Mean (SEM) Collagen Deposition Score in Lung Tissue / Mean (SEM) Soluble Collagen Content in BALF: Day 21 after 14 days of daily treatment, nintedanib 60 mg/kg/day PO; for Mean (SEM) Ashcroft Score: H&E; for Mean (SEM) Collagen Deposition Score in Lung Tissue: Masson's Trichrome; for Mean (SEM) Soluble Collagen Content in BALF: Sircol assay
Protocol: The effect of combining the peptides of Formula I with a second antifibrotic drug on the progression of established lung fibrosis were assessed by monitoring lung fibrosis, lung weight, inflammatory cells in bronchoalveolar lavage fluid (BALF), soluble collagen in BALF, cytokine secretion, and body weight change in a therapeutic mouse model of idiopathic pulmonary fibrosis. Lung fibrosis was induced in lungs of male C57BL/6 mice between the ages of 6 to 8 weeks by nasophayngeal administration of bleomycin (1.5U/kg using bleomycin clinical formulation diluted in PBS). A control group of animals were administered saline by the nasopharyngeal route (no-bleomycin control group). After one week, bleomycin-treated animals were randomized to treatment groups (N=10 per group) by body weight and treated daily with vehicle control, nintedanib (60 mg/kg/day PO), peptide (5 mg/kg/day by intraperitoneal injection), or the combination of nintedanib (60 mg/kg/day PO) and peptide (5 mg/kg/day by intraperitoneal injection). After 14 days of treatment (Day 21), lungs were removed and weighed. The post-caval lobe was separated and snap frozen. The lungs were flushed with Hanks Buffer and bronchoalveolar lavage fluid (BALF) was harvested from each animal Differential cell counts in BALF were obtained. Levels of pro-inflammatory cytokines in BALF were determined using a meso scale discovery (MSD) system. Slides were prepared from the remaining BALF leukocytes, fixed and stained with May Geimsa stain and the differential counts were recorded manually. BALF was evaluated for soluble collagen using a Sircol assay. Lungs were fixed in 10% neutral buffered formalin (NBF) for histopathological analysis. Fibrosis was assessed by histopathological analysis of H&E stained mouse lungs using an Ashcroft scoring system. Collagen deposition in lung tissue was assessed by histopathological analysis of Masson's Trichrome stained mouse lungs using a standard scoring system for severity.

Row | Molecule | Mean Pro-inflammatory Cytokine Level IFNγ [2] | Mean Pro-inflammatory Cytokine Level IL-1β [2] | Mean Pro-inflammatory Cytokine Level IL-6 [2] | Mean Pro-inflammatory Cytokine Level KC/GRO [2] | Mean Pro-inflammatory Cytokine Level MCP-1 [2] | Mean Pro-inflammatory Cytokine Level MIP-1α [2] | Mean Pro-inflammatory Cytokine Level TNFα [2] | Mean (SEM) Number of Lymphocytes in BALF [2] | Mean (SEM) Number of Macrophages in BALF [2] | Mean (SEM) Number of Neutrophils in BALF [2] | Mean (SEM) Normalized Lung Weight [2] | Mean (SEM) Ashcroft Score [2] | Mean (SEM) Collagen Deposition Score in Lung Tissue [2] | Mean (SEM) Ashcroft Score ([1]; Day 21, 15 mg/kg/day IP) | Mean (SEM) Collagen Content in BALF ([1]; Day 21, 15 mg/kg/day IP) | Mean (SEM) Collagen Deposition Score in Lung Tissue ([1]; Day 21, 15 mg/kg/day IP) | Mean (SEM) Normalized Lung Weight ([1]; Day 21, 15 mg/kg/day IP) | Mean (SEM) Number of Lymphocytes in BALF ([1]; Day 21, 15 mg/kg/day IP) | Mean (SEM) Number of Macrophages in BALF ([1]; Day 21, 15 mg/kg/day IP) | Mean (SEM) Number of Neutrophils in BALF ([1]; Day 21, 15 mg/kg/day IP) | further results
1 | COC(=O)c1ccc2c(c1)NC(=O)/C2=C(\Nc1ccc(N(C)C(=O)CN2CCN(C)CC2)cc1)c1ccccc1 [Nintedanib, nintedanib, reference compound] | 0.019 pg/mL | 0.50 pg/mL | 384 pg/mL | 29.3 pg/mL | 35.8 pg/mL | 1.05 pg/mL | 2.76 pg/mL | 18700 (5200) | 49200 (6450) | 3040 (1370) | 1.49 (0.17) | 2.82 (0.39) | 2.22 (0.43) |  |  |  |  |  |  |  | Mean (SEM) Ashcroft Score ([1]; Day 21, 60 mg/kg/day PO): 2.35 (0.38); Mean (SEM) Collagen Content in BALF ([1]; Day 21, 60 mg/kg/day PO): 0.061 (0.011) mg/mL; Mean (SEM) Collagen Deposition Score in Lung Tissue ([1]; Day 21, 60 mg/kg/day PO): 2.20 (0.36); Mean (SEM) Normalized Lung Weight ([1]; Day 21, 60 mg/kg/day PO): 1.16 (0.07); Mean (SEM) Number of Lymphocytes in BALF ([1]; Day 21, 60 mg/kg/day PO): 1180 (631); Mean (SEM) Number of Macrophages in BALF ([1]; Day 21, 60 mg/kg/day PO): 5030 (823); Mean (SEM) Number of Neutrophils in BALF ([1]; Day 21, 60 mg/kg/day PO): 201 (77); Mean (SEM) Soluble Collagen Content in BALF [2]: 0.048 (0.005) mg/mL
2 | RVIR(Nle)CLGVGLLGDL(dA)GK{PEG12} (RVIR[Nle]CLGVGLLGDL[dA]GK(PEG12′); also: homodimer, disulfide at Cys6) [SEQ ID NO: 32] | 0.020 pg/mL | 0.07 pg/mL | 269 pg/mL | 21.5 pg/mL | 29.7 pg/mL | 0.95 pg/mL | 3.05 pg/mL | 28600 (5480) | 86600 (7070) | 5850 (2220) | 1.57 (0.20) | 3.12 (0.45) | 2.56 (0.48) | 2.26 (0.35) | 0.091 (0.016) mg/mL | 2.10 (0.35) | 1.20 (0.05) | 1270 (584) | 5030 (974) | 96 (64) | Mean (SEM) Ashcroft Score ([1]; Day 21, 5 mg/kg/day IP): 2.26 (0.27); Mean (SEM) Collagen Content in BALF ([1]; Day 21, 5 mg/kg/day IP): 0.074 (0.019) mg/mL; Mean (SEM) Collagen Deposition Score in Lung Tissue ([1]; Day 21, 5 mg/kg/day IP): 2.20 (0.25); Mean (SEM) Normalized Lung Weight ([1]; Day 21, 5 mg/kg/day IP): 1.17 (0.03); Mean (SEM) Number of Lymphocytes in BALF ([1]; Day 21, 5 mg/kg/day IP): 946 (579); Mean (SEM) Number of Macrophages in BALF ([1]; Day 21, 5 mg/kg/day IP): 5530 (1090); Mean (SEM) Number of Neutrophils in BALF ([1]; Day 21, 5 mg/kg/day IP): 61 (61); Mean (SEM) Soluble Collagen Content in BALF [2]: 0.058 (0.005) mg/mL
3 | RVIRACLGVGLLGDL(dA)GK{PEG12} (RVIRACLGVGLLGDL[dA]GK(PEG12′); also: homodimer) [SEQ ID NO: 30] | 0.037 pg/mL | 0.03 pg/mL | 64.6 pg/mL | 16.7 pg/mL | 7.59 pg/mL | 0.52 pg/mL | 2.85 pg/mL | 8930 (3350) | 41700 (5740) | 1830 (1080) | 1.36 (0.10) | 2.93 (0.33) | 2.30 (0.26) | 2.00 (0.37) | 0.063 (0.007) mg/mL | 1.80 (0.33) | 1.22 (0.11) | 896 (254) | 3780 (559) | 122 (88) | Mean (SEM) Ashcroft Score ([1]; Day 21, 5 mg/kg/day IP): 1.92 (0.21); Mean (SEM) Collagen Content in BALF ([1]; Day 21, 5 mg/kg/day IP): 0.071 (0.020) mg/mL; Mean (SEM) Collagen Deposition Score in Lung Tissue ([1]; Day 21, 5 mg/kg/day IP): 1.67 (0.29); Mean (SEM) Normalized Lung Weight ([1]; Day 21, 5 mg/kg/day IP): 1.15 (0.03); Mean (SEM) Number of Lymphocytes in BALF ([1]; Day 21, 5 mg/kg/day IP): 1210 (664); Mean (SEM) Number of Macrophages in BALF ([1]; Day 21, 5 mg/kg/day IP): 5070 (1130); Mean (SEM) Number of Neutrophils in BALF ([1]; Day 21, 5 mg/kg/day IP): 0 (0); Mean (SEM) Soluble Collagen Content in BALF [2]: 0.067 (0.013) mg/mL
4 | RVIRACLGVGLLGDLAGK{PEG12} (RVIRACLGVGLLGDLAGK(PEG12′); also: homodimer, disulfide at Cys6) [SEQ ID NO: 36] |  |  |  |  |  |  |  |  |  |  |  |  |  | 3.33 (0.33) | 0.068 (0.008) mg/mL | 2.89 (0.35) | 1.32 (0.12) | 884 (442) | 6430 (930) | 165 (140) | Mean (SEM) Ashcroft Score ([1]; Day 21, 5 mg/kg/day IP): 2.65 (0.40); Mean (SEM) Collagen Content in BALF ([1]; Day 21, 5 mg/kg/day IP): 0.081 (0.010) mg/mL; Mean (SEM) Collagen Deposition Score in Lung Tissue ([1]; Day 21, 5 mg/kg/day IP): 2.50 (0.37); Mean (SEM) Normalized Lung Weight ([1]; Day 21, 5 mg/kg/day IP): 1.19 (0.06); Mean (SEM) Number of Lymphocytes in BALF ([1]; Day 21, 5 mg/kg/day IP): 987 (316); Mean (SEM) Number of Macrophages in BALF ([1]; Day 21, 5 mg/kg/day IP): 5180 (1030); Mean (SEM) Number of Neutrophils in BALF ([1]; Day 21, 5 mg/kg/day IP): 113 (60)
5 | RVIRMCLGVGLLGDLAGK{PEG12} (RVIRMCLGVGLLGDLAGK(PEG12′); also: homodimer, disulfide at Cys6) [SEQ ID NO: 28] |  |  |  |  |  |  |  |  |  |  |  |  |  | 2.24 (0.25) | 0.080 (0.016) mg/mL | 2.00 (0.26) | 1.27 (0.05) | 1210 (233) | 6340 (792) | 261 (117) | 
